This is an account of results in patent US20200017467A1, “NOVEL TRIAZOLE DERIVATIVES” (BAYER CROPSCIENCE AKTIENGESELLSCHAFT, priority 2017, published 2020).

The test system of one data set is Puccinia recondita. Briefly: In vivo preventive test on Puccinia recondita (brown rust on wheat). To be noted: 264 h, 500 ppm of active ingredient, preventive spray, evaluated 11 days after inoculation, read-out: efficacy. The method, then: (§1) Example A: In Vivo Preventive Test on Puccinia recondita (Brown Rust on Wheat) [table] The active ingredients were made soluble and homogenized in a mixture of dimethyl sulfoxide/acetone//Tween® 80 and then diluted in water to the desired concentration. Young plants of wheat were treated by spraying the active ingredient prepared as described above. Control plants were treated only with an aqueous solution of acetone/dimethyl sulfoxide/Tween® 80. After 24 hours, the plants were contaminated by spraying the leaves with an aqueous suspension of Puccinia recondita spores. The contaminated wheat plants were incubated for 24 hours at 20° C. and at 100% relative humidity and then for 10 days at 20° C. and at 70-80% relative humidity. The test was evaluated 11 days after the inoculation. 0% means an efficacy which corresponds to that of the control plants while an efficacy of 100% means that no disease was observed.

Data set [1] deals with Septoria tritici. As to the kind of experiment: Example F-A: in vivo preventive Septoria tritici test (wheat). To be noted: Zymoseptoria tritici, 504 h, evaluated 21 days after inoculation, read-out: Efficacy in % Example F-A. The procedure:
Example F: In Vivo Septoria tritici Test (Wheat); Comparison of Pyridinyloxy-Pyridyl Compounds According to the Invention Vs. Compounds Known from WO-A 2010/146116 [table] To produce a suitable preparation of active compound, 1 part by weight of active compound or active compound combination is mixed with the stated amounts of solvent and emulsifier, and the concentrate is diluted with water to the desired concentration. Example F-A: In Vivo Preventive Septoria tritici Test (Wheat) To test for preventive activity, young plants are sprayed with the preparation of active compound or active compound combination at the stated rate of application. After the spray coating has been dried, the plants are sprayed with a spore suspension of Septoria tritici. The plants remain for 48 hours in an incubation cabinet at approximately 20° C. and a relative atmospheric humidity of approximately 100% and afterwards for 60 hours at approximately 15° C. in a translucent incubation cabinet at a relative atmospheric humidity of approximately 100%. The plants are placed in the greenhouse at a temperature of approximately 15° C. and a relative atmospheric humidity of approximately 80%. The test is evaluated 21 days after the inoculation. 0% means an efficacy which corresponds to that of the untreated control, while an efficacy of 100% means that no disease is observed.

In another data set the test system is Sphaerotheca fuliginea. Briefly: In vivo preventive test on Sphaerotheca fuliginea (powdery mildew on cucurbits). To be noted: Podosphaera fuliginea, 360 h; 500 ppm of active ingredient; gherkin, preventive spray, evaluated 15 days after inoculation; read-out: efficacy. The procedure:
Example C: In Vivo Preventive Test on Sphaerotheca fuliginea (Powdery Mildew on Cucurbits) [table] The active ingredients were made soluble and homogenized in a mixture of dimethyl sulfoxide/acetone//Tween® 80 and then diluted in water to the desired concentration. Young plants of gherkin were treated by spraying the active ingredient prepared as described above. Control plants were treated only with an aqueous solution of acetone/dimethyl sulfoxide/Tween® 80. After 24 hours, the plants were contaminated by spraying the leaves with an aqueous suspension of Sphaerotheca fuliginea spores. The contaminated gherkin plants were incubated for 72 hours at 18° C. and at 100% relative humidity and then for 12 days at 20° C. and at 70-80% relative humidity. The test was evaluated 15 days after the inoculation. 0% means an efficacy which corresponds to that of the control plants while an efficacy of 100% means that no disease was observed.

The nature of data set [2]: Log P by HPLC on reversed phase columns (EEC directive 79/831 Annex V.A8). Type of data set: physicochemical. To be noted: reversed phase HPLC columns; method [a]: LC-UV, acidic range, 0.1% formic acid in water and acetonitrile; compounds of formula (I). The procedure: Log P values: Measurement of Log P values was performed according to EEC directive 79/831 Annex V.A8 by HPLC (High Performance Liquid Chromatography) on reversed phase columns with the following methods: • ^[a] Log P value is determined by measurement of LC-UV, in an acidic range, with 0.1% formic acid in water and acetonitrile as eluent (linear gradient from 10% acetonitrile to 95% acetonitrile). • ^[b] Log P value is determined by measurement of LC-UV, in a neutral range, with 0.001 molar ammonium acetate solution in water and acetonitrile as eluent (linear gradient from 10% acetonitrile to 95% acetonitrile). • ^[c] Log P value is determined by measurement of LC-UV, in an acidic range, with 0.1% phosphoric acid and acetonitrile as eluent (linear gradient from 10% acetonitrile to 95% acetonitrile). If more than one Log P value is available within the same method, all the values are given and separated by “+”. Calibration was done with straight-chain alkan2-ones (with 3 to 16 carbon atoms) with known Log P values (measurement of Log P values using retention times with linear interpolation between successive alkanones). Lambda-max-values were determined using UV-spectra from 200 nm to 400 nm and the peak values of the chromatographic signals.

For another data set, the system named is Uromyces appendiculatus. Briefly: In vivo preventive test on Uromyces appendiculatus (bean rust). To be noted: 264 h, 500 ppm of active ingredient, preventive spray, evaluated 11 days after inoculation, read-out: efficacy. The method, then: as §1, with “D:” for “A:”, “Uromyces appendiculatus (Bean Rust)” for “Puccinia recondita (Brown Rust on Wheat)”, “bean” for “wheat”, “Uromyces appendiculatus” for “Puccinia recondita”

The test system of data set [3] is Septoria tritici. As to the kind of experiment: Example F-B: in vivo curative Septoria tritici test (wheat). To be noted: Zymoseptoria tritici, 504 h, sprayed 48 hours after inoculation, evaluated 21 days after inoculation, read-out: Efficacy in % Example F-B. The method, then:
Example F: In Vivo Septoria tritici Test (Wheat); Comparison of Pyridinyloxy-Pyridyl Compounds According to the Invention Vs. Compounds Known from WO-A 2010/146116 [table] To produce a suitable preparation of active compound, 1 part by weight of active compound or active compound combination is mixed with the stated amounts of solvent and emulsifier, and the concentrate is diluted with water to the desired concentration. Example F-B: In Vivo Curative Septoria tritici Test (Wheat) To test for curative activity, young plants are inoculated with a spore suspension of Septoria tritici and remain for 48 hours in an incubation cabinet at a temperature of approximately 20° C. and a relative atmospheric humidity of approximately 100%. 48 hours after the incubation, the plants are sprayed with the preparation of active compound or active compound combination at the stated rate of application. After application the plants remain for 60 hours at a temperature of approximately 15° C. in a translucent incubation cabinet at a relative atmospheric humidity of approximately 100%. Afterwards, the plants are placed in the greenhouse at a temperature of approximately 15° C. and a relative atmospheric humidity of approximately 80%. The test is evaluated 21 days after the inoculation. 0% means an efficacy which corresponds to that of the untreated control, while an efficacy of 100% means that no disease is observed.

With `CC(O)(Cn1cncn1)c1ccc(Oc2ccc(Br)nc2)nc1C(F)(F)F` (centres unmarked) [I-01, 2-[6-[(6-bromo-3-pyridyl)oxy]-2-(trifluoromethyl)-3-pyridyl]-1-(1,2,4-triazol-1-yl)propan-2-ol], the pest or weed control at 500 ppm in the data set on Puccinia recondita was 90 to 100%; with Septoria tritici [1], 100%; in the data set on Sphaerotheca fuliginea, 90 to 100%; with Uromyces appendiculatus it was 80 to 89%; in the data set with Septoria tritici [3], 93%. Also, the chromatographic logP (commonly lipophilicity estimated from chromatographic retention) in data set [2] was 2.25.
With `CC(O)(Cn1cncn1)c1ccc(Oc2ccc(C(F)(F)F)nc2)nc1C(F)(F)F` (centres unmarked) [I-02, 1-(1,2,4-triazol-1-yl)-2-[2-(trifluoromethyl)-6-[[6-(trifluoromethyl)-3-pyridyl]oxy]-3-pyridyl]propan-2-ol], the pest or weed control at 500 ppm in the data set with Puccinia recondita is 80 to 89%; in the data set with Septoria tritici [1], 100%; in the data set with Sphaerotheca fuliginea it was 90 to 100%; in the data set on Uromyces appendiculatus, 90 to 100%; with Septoria tritici [3], 100%. In data set [2], this compound gave a chromatographic logP of 2.56.
`CC(O)(Cn1cncn1)c1cnc(Oc2ccc(C(F)(F)F)nc2)cc1C(F)(F)F` (centres unmarked) [I-04]: the pest or weed control at 500 ppm with Puccinia recondita is 90 to 100%; in the data set on Septoria tritici [1], 100%; with Sphaerotheca fuliginea, 90 to 100%; in the data set on Uromyces appendiculatus, 90 to 100%; with Septoria tritici [3] it was 100%. In data set [2], this compound had a chromatographic logP of 2.53.
As for `CC(O)(Cn1cncn1)c1ccc(Oc2ccc(Cl)nc2)nc1C(F)(F)F` (centres unmarked) [I-05], the pest or weed control at 500 ppm in the data set with Puccinia recondita is 80 to 89%; in the data set on Septoria tritici [1], 100%; with Sphaerotheca fuliginea it was 90 to 100%; in the data set with Uromyces appendiculatus, 90 to 100%; in the data set with Septoria tritici [3], 100%. This compound also returned a chromatographic logP in data set [2] of 2.21.
Turning to `CC(O)(Cn1cncn1)c1cnc(Oc2ccc(Cl)nc2)cc1C(F)(F)F` (centres unmarked) [I-06, 2-[6-[(6-chloro-3-pyridyl)oxy]-4-(trifluoromethyl)-3-pyridyl]-1-(1,2,4-triazol-1-yl)propan-2-ol], the pest or weed control at 500 ppm was 90 to 100% with Puccinia recondita; 100% in the data set with Septoria tritici [1]; 90 to 100% in the data set on Sphaerotheca fuliginea; 90 to 100% in the data set on Uromyces appendiculatus; 100% with Septoria tritici [3]. In data set [2], this compound had a chromatographic logP of 2.18.
As for `CC(O)(Cn1cncn1)c1cnc(Oc2ccc(Br)nc2)cc1C(F)(F)F` (centres unmarked) [I-07], the pest or weed control at 500 ppm with Puccinia recondita was 80 to 89%; with Septoria tritici [1], 100%; in the data set on Sphaerotheca fuliginea it was 90 to 100%; in the data set on Uromyces appendiculatus it was 70 to 79%; in the data set on Septoria tritici [3], 70%. Also, the chromatographic logP in data set [2] is 2.3.
With `OC(Cn1cncn1)c1ccc(Oc2ccc(C(F)(F)F)nc2)nc1C(F)(F)F` (centres unmarked) [I-09], the pest or weed control at 500 ppm with Puccinia recondita was 90 to 100%; in the data set with Septoria tritici [1], 100%; with Sphaerotheca fuliginea, 90 to 100%; with Uromyces appendiculatus it was 90 to 100%; in the data set with Septoria tritici [3], 86%. In addition, the chromatographic logP in data set [2] was 2.2.
With `OC(Cn1cncn1)c1cnc(Oc2ccc(Br)nc2)cc1C(F)(F)F` (centres unmarked) [I-13], the pest or weed control at 500 ppm in the data set with Puccinia recondita is 90 to 100%; in the data set on Septoria tritici [1], 100%; with Sphaerotheca fuliginea, 90 to 100%; with Septoria tritici [3], 60%. Further, in data set [2], the chromatographic logP stood at 2.13.
